How the values were obtained:
Type in all cases: in vivo
[1] = test system: Abutilon theophrasti (ABUTH); assay: Pre-emergence herbicidal action against ABUTH; conditions: 100% = plants have died
Outline: (§1)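 Dosages of 320 g/ha or less; pre-emergence; WP or EC in aqueous spray, 0.5% additive, 600 l/ha; greenhouse; visual % effect after ~3 wk relative to control pots.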

[2] = test system: Lolium rigidum (LOLRI); assay: Pre-emergence herbicidal action against LOLRI
Outline: as §1

[3] = test system: Setaria viridis (SETVI); assay: Pre-emergence herbicidal action against SETVI
Outline: as §1

[4] = test system: Verconica persica (VERPE); assay: Pre-emergence herbicidal action against VERPE
Outline: as §1

[5] = test system: Viola tricolor (VIOTR); assay: Pre-emergence herbicidal action against VIOTR
Outline: as §1

[6] = test system: Abutilon theophrasti (ABUTH); assay: Post-emergence herbicidal action against ABUTH; conditions: visual rating about 3 weeks after treatment vs untreated controls (100% = plants have died, 0% = like control plants)
Outline: (§2)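 Rates were 320 g/ha or below, applied as aqueous WP/EC spray with 0.5% additive (600 l/ha) onto one-leaf-stage plants. About 3 weeks later in the greenhouse, damage was scored visually against untreated plants on a 0–100% scale, where 100% means plants died.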

[7] = test system: Amaranthus retroflexus (AMARE); assay: Post-emergence herbicidal action against AMARE
Outline: as §2

[8] = test system: Matricaria inodora (MATIN); assay: Post-emergence herbicidal action against MATIN
Outline: as §2

[9] = test system: Verconica persica (VERPE); assay: Post-emergence herbicidal action against VERPE
Outline: as §2

[10] = test system: Viola tricolor (VIOTR); assay: Post-emergence herbicidal action against VIOTR
Outline: as §2

[11] = Dosage column 320 g/ha (title prints 3200 g/ha), scored visually after about 3 weeks
[12] = 80 g/ha, visual rating about 3 weeks after treatment vs untreated controls (100% = plants have died, 0% = like control plants)
[13] = 320 g/ha, visual rating about 3 weeks after treatment

Row | SMILES | Pre-emergence action against ABUTH [1, 11] [%] | Pre-emergence action against LOLRI in % ([2]; dosage 80 g/ha) [%] | Pre-emergence action against LOLRI in % ([2]; dosage 320 g/ha) [%] | Pre-emergence action against SETVI in % ([3]; dosage 80 g/ha) [%] | Pre-emergence action against SETVI in % ([3]; dosage 320 g/ha) [%] | Pre-emergence action against VERPE in % ([4]; dosage 80 g/ha) [%] | Pre-emergence action against VERPE in % ([4]; dosage 320 g/ha) [%] | Pre-emergence action against VIOTR in % ([5]; 320 g/ha, Viola tricolor) [%] | Pre-emergence action against VIOTR in % ([5]; dosage 80 g/ha) [%] | Post-emergence action against ABUTH in % ([6]; 80 g/ha) [%] | Post-emergence action against ABUTH in % ([6]; 320 g/ha) [%] | Post-emergence action against AMARE in % [7, 12] [%] | Post-emergence action against AMARE in % [7, 13] [%] | Post-emergence action against MATIN in % ([8]; dosage 320 g/ha) [%] | Post-emergence action against VERPE in % ([9]; 320 g/ha, VERPE) [%] | Post-emergence action against VERPE in % ([9]; dosage 80 g/ha) [%] | Post-emergence action against VIOTR in % ([10]; 80 g/ha) [%] | Post-emergence action against VIOTR in % ([10]; 320 g/ha) [%] | Pre-emergence action against ABUTH ([1]; 80 g/ha, scored visually after about 3 weeks vs untreated controls, 0% = like control plants) [%] | Post-emergence action against MATIN in % ([8]; dosage 80 g/ha) [%]
1 | CCOC(=O)[C@@H](C)Oc1nn(-c2ncccc2F)c(-c2ccc(F)nc2)c1C1CC1 [Example I-375] | 100 | 100 | 100 | 90 | 100 | 100 | 100 | 100 | 100 | 90 | 90 | 80 | 80 | 80 | 90 | 80 | 80 | 90 | – | –
2 | COC(=O)[C@@H](C)Oc1nn(-c2ncccc2F)c(-c2ccc(F)nc2)c1C1CC1 [Example I-307] | 80 | 100 | 100 | 100 | 100 | 90 | 100 | 100 | 100 | – | 90 | 80 | 90 | 80 | 90 | 90 | 80 | 90 | – | –
3 | COC(=O)[C@@H](C)Oc1nn(-c2ncccc2F)c(-c2ccc(F)nc2)c1I [Example I-341] | 90 | 100 | 100 | 80 | 100 | – | 100 | 100 | 100 | 80 | 90 | 80 | 80 | 90 | 90 | 90 | 80 | 80 | 90 | –
4 | COC(=O)C(C)COC(=O)[C@@H](C)Oc1nn(-c2ccccn2)c(-c2cncc(F)c2)c1Cl (some centres unmarked) [Example I-198] | 90 | 100 | 100 | 100 | 100 | 90 | 100 | 100 | 90 | 80 | 80 | 80 | 90 | 80 | 80 | 80 | – | 80 | – | –
5 | COC(=O)COc1nn(-c2ncccc2F)c(-c2ccc(F)nc2)c1Br [Example I-07] | 90 | – | 100 | – | 100 | – | 100 | 100 | 90 | 80 | 90 | 90 | 90 | 100 | 90 | 90 | 90 | 90 | – | 90
6 | COC(=O)[C@@H](C)Oc1nn(-c2nc(F)ccc2F)c(-c2cncc(F)c2)c1C1CC1 [Example I-171] | 90 | 100 | 100 | 100 | 100 | 100 | 100 | 100 | 100 | – | 90 | 80 | 80 | 90 | 90 | 80 | 90 | 90 | – | 80

From US20240041042A1, “1-(PYRIDYL)-5-AZINYLPYRAZOLE DERIVATIVES, AND THEIR USE FOR CONTROL OF UNDESIRED PLANT GROWTH” (Bayer Aktiengesellschaft, priority 2020, published 2024)
